# Test system: ML-2
# Assay: cell viability (% survival relative to DMSO control, bortezomib = 0%); higher = less cytotoxic
# Conditions: 1000 nM; 72 h
# Outline: (§1)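 After 72 h at 37 °C with 5% CO2, cell viability in 384-well plates was measured by CellTiter-Glo luminescence. The plates held compounds pre-printed at 1, 10, 100, 1000 or 10000 nM in duplicate, and cells from 10 AML and 5 CML lines seeded at densities titrated to linear growth. Percent survival is the duplicate mean, normalised to vehicle as 100% and a 10 µM positive control as 0%.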
row,Structure (SMILES),cell viability
1,OC[C@H]1N[C@@H](c2c[nH]c3c(O)ncnc23)[C@H](O)[C@@H]1O [Forodesine],92.9%
2,O=c1oc2c(cc1O)oc(=O)c1cc(O)c(O)c(O)c12 [Galloflavin],111%
3,Nc1ccn([C@@H]2O[C@H](CO)[C@@H](O)C2(F)F)c(=O)n1 [Gemcitabine],2.33%
4,N[C@@H](CCC(=O)N[C@@H](CS)C(=O)NCC(=O)O)C(=O)O [Glutathione],93%
5,Clc1cc(Cl)c(OCC#CI)cc1Cl [Haloprogin],102%
6,O=c1[nH]c(=O)n([C@H]2C[C@H](O)[C@@H](CO)O2)cc1I [Idoxuridine],83.4%
7,CC1Cc2ccccc2N1NC(=O)c1ccc(Cl)c(S(N)(=O)=O)c1 (configuration not stated) [Indapamide],93.8%
8,NS(=O)(=O)c1ccc(S(=O)(=O)Nc2cccc3c(Cl)c[nH]c23)cc1 [Indisulam],35.2%
9,COc1ccc2c(c1)c(CC(=O)O)c(C)n2C(=O)c1ccc(Cl)cc1 [Indomethacine],90.4%
10,Cn1cc(C[C@@H](N)C(=O)O)c2ccccc21 [Indoximod],106%

# Same assay, conditions: 10000 nM; 72 h
row,Structure (SMILES),cell viability
1,OC[C@H]1N[C@@H](c2c[nH]c3c(O)ncnc23)[C@H](O)[C@@H]1O [Forodesine],85.7%
2,O=c1oc2c(cc1O)oc(=O)c1cc(O)c(O)c(O)c12 [Galloflavin],115%
3,Nc1ccn([C@@H]2O[C@H](CO)[C@@H](O)C2(F)F)c(=O)n1 [Gemcitabine],2.18%
4,N[C@@H](CCC(=O)N[C@@H](CS)C(=O)NCC(=O)O)C(=O)O [Glutathione],104%
5,Clc1cc(Cl)c(OCC#CI)cc1Cl [Haloprogin],-0.066%
6,O=c1[nH]c(=O)n([C@H]2C[C@H](O)[C@@H](CO)O2)cc1I [Idoxuridine],28.2%
7,CC1Cc2ccccc2N1NC(=O)c1ccc(Cl)c(S(N)(=O)=O)c1 (configuration not stated) [Indapamide],100%
8,NS(=O)(=O)c1ccc(S(=O)(=O)Nc2cccc3c(Cl)c[nH]c23)cc1 [Indisulam],3.51%
9,COc1ccc2c(c1)c(CC(=O)O)c(C)n2C(=O)c1ccc(Cl)cc1 [Indomethacine],94.1%
10,Cn1cc(C[C@@H](N)C(=O)O)c2ccccc21 [Indoximod],92.9%

# Test system: LAMA-84
# Assay: as above
# Conditions: 1 nM; 72 h
# Outline: as §1
row,Structure (SMILES),cell viability
1,OC[C@H]1N[C@@H](c2c[nH]c3c(O)ncnc23)[C@H](O)[C@@H]1O [Forodesine],96.4%
2,O=c1oc2c(cc1O)oc(=O)c1cc(O)c(O)c(O)c12 [Galloflavin],93.7%
3,Nc1ccn([C@@H]2O[C@H](CO)[C@@H](O)C2(F)F)c(=O)n1 [Gemcitabine],95.6%
4,N[C@@H](CCC(=O)N[C@@H](CS)C(=O)NCC(=O)O)C(=O)O [Glutathione],100%
5,Clc1cc(Cl)c(OCC#CI)cc1Cl [Haloprogin],94.4%
6,O=c1[nH]c(=O)n([C@H]2C[C@H](O)[C@@H](CO)O2)cc1I [Idoxuridine],102%
7,CC1Cc2ccccc2N1NC(=O)c1ccc(Cl)c(S(N)(=O)=O)c1 (configuration not stated) [Indapamide],92.2%
8,NS(=O)(=O)c1ccc(S(=O)(=O)Nc2cccc3c(Cl)c[nH]c23)cc1 [Indisulam],94.3%
9,COc1ccc2c(c1)c(CC(=O)O)c(C)n2C(=O)c1ccc(Cl)cc1 [Indomethacine],86.4%
10,Cn1cc(C[C@@H](N)C(=O)O)c2ccccc21 [Indoximod],94.5%

# Same assay, conditions: 10 nM; 72 h
row,Structure (SMILES),cell viability
1,OC[C@H]1N[C@@H](c2c[nH]c3c(O)ncnc23)[C@H](O)[C@@H]1O [Forodesine],90.1%
2,O=c1oc2c(cc1O)oc(=O)c1cc(O)c(O)c(O)c12 [Galloflavin],95%
3,Nc1ccn([C@@H]2O[C@H](CO)[C@@H](O)C2(F)F)c(=O)n1 [Gemcitabine],45.7%
4,N[C@@H](CCC(=O)N[C@@H](CS)C(=O)NCC(=O)O)C(=O)O [Glutathione],98.1%
5,Clc1cc(Cl)c(OCC#CI)cc1Cl [Haloprogin],94.6%
6,O=c1[nH]c(=O)n([C@H]2C[C@H](O)[C@@H](CO)O2)cc1I [Idoxuridine],88.8%
7,CC1Cc2ccccc2N1NC(=O)c1ccc(Cl)c(S(N)(=O)=O)c1 (configuration not stated) [Indapamide],111%
8,NS(=O)(=O)c1ccc(S(=O)(=O)Nc2cccc3c(Cl)c[nH]c23)cc1 [Indisulam],89%
9,COc1ccc2c(c1)c(CC(=O)O)c(C)n2C(=O)c1ccc(Cl)cc1 [Indomethacine],98.5%
10,Cn1cc(C[C@@H](N)C(=O)O)c2ccccc21 [Indoximod],97.2%

# Same assay, conditions: 100 nM; 72 h
row,Structure (SMILES),cell viability
1,OC[C@H]1N[C@@H](c2c[nH]c3c(O)ncnc23)[C@H](O)[C@@H]1O [Forodesine],94.7%
2,O=c1oc2c(cc1O)oc(=O)c1cc(O)c(O)c(O)c12 [Galloflavin],106%
3,Nc1ccn([C@@H]2O[C@H](CO)[C@@H](O)C2(F)F)c(=O)n1 [Gemcitabine],5.22%
4,N[C@@H](CCC(=O)N[C@@H](CS)C(=O)NCC(=O)O)C(=O)O [Glutathione],97.6%
5,Clc1cc(Cl)c(OCC#CI)cc1Cl [Haloprogin],99.9%
6,O=c1[nH]c(=O)n([C@H]2C[C@H](O)[C@@H](CO)O2)cc1I [Idoxuridine],103%
7,CC1Cc2ccccc2N1NC(=O)c1ccc(Cl)c(S(N)(=O)=O)c1 (configuration not stated) [Indapamide],98.1%
8,NS(=O)(=O)c1ccc(S(=O)(=O)Nc2cccc3c(Cl)c[nH]c23)cc1 [Indisulam],111%
9,COc1ccc2c(c1)c(CC(=O)O)c(C)n2C(=O)c1ccc(Cl)cc1 [Indomethacine],92.9%
10,Cn1cc(C[C@@H](N)C(=O)O)c2ccccc21 [Indoximod],91.1%

# Same assay, conditions: 1000 nM; 72 h
row,Structure (SMILES),cell viability
1,OC[C@H]1N[C@@H](c2c[nH]c3c(O)ncnc23)[C@H](O)[C@@H]1O [Forodesine],93%
2,O=c1oc2c(cc1O)oc(=O)c1cc(O)c(O)c(O)c12 [Galloflavin],98.2%
3,Nc1ccn([C@@H]2O[C@H](CO)[C@@H](O)C2(F)F)c(=O)n1 [Gemcitabine],4.64%
4,N[C@@H](CCC(=O)N[C@@H](CS)C(=O)NCC(=O)O)C(=O)O [Glutathione],98.1%
5,Clc1cc(Cl)c(OCC#CI)cc1Cl [Haloprogin],101%
6,O=c1[nH]c(=O)n([C@H]2C[C@H](O)[C@@H](CO)O2)cc1I [Idoxuridine],87%
7,CC1Cc2ccccc2N1NC(=O)c1ccc(Cl)c(S(N)(=O)=O)c1 (configuration not stated) [Indapamide],94.3%
8,NS(=O)(=O)c1ccc(S(=O)(=O)Nc2cccc3c(Cl)c[nH]c23)cc1 [Indisulam],55.2%
9,COc1ccc2c(c1)c(CC(=O)O)c(C)n2C(=O)c1ccc(Cl)cc1 [Indomethacine],107%
10,Cn1cc(C[C@@H](N)C(=O)O)c2ccccc21 [Indoximod],113%

# Same assay, conditions: 10000 nM; 72 h
row,Structure (SMILES),cell viability
1,OC[C@H]1N[C@@H](c2c[nH]c3c(O)ncnc23)[C@H](O)[C@@H]1O [Forodesine],88.7%
2,O=c1oc2c(cc1O)oc(=O)c1cc(O)c(O)c(O)c12 [Galloflavin],99.4%
3,Nc1ccn([C@@H]2O[C@H](CO)[C@@H](O)C2(F)F)c(=O)n1 [Gemcitabine],4.9%
4,N[C@@H](CCC(=O)N[C@@H](CS)C(=O)NCC(=O)O)C(=O)O [Glutathione],104%
5,Clc1cc(Cl)c(OCC#CI)cc1Cl [Haloprogin],21.7%
6,O=c1[nH]c(=O)n([C@H]2C[C@H](O)[C@@H](CO)O2)cc1I [Idoxuridine],47.1%
7,CC1Cc2ccccc2N1NC(=O)c1ccc(Cl)c(S(N)(=O)=O)c1 (configuration not stated) [Indapamide],91.3%
8,NS(=O)(=O)c1ccc(S(=O)(=O)Nc2cccc3c(Cl)c[nH]c23)cc1 [Indisulam],21.9%
9,COc1ccc2c(c1)c(CC(=O)O)c(C)n2C(=O)c1ccc(Cl)cc1 [Indomethacine],91.5%
10,Cn1cc(C[C@@H](N)C(=O)O)c2ccccc21 [Indoximod],94.7%

# Test system: KG-1
# Assay: as above
# Conditions: 1 nM; 72 h
# Outline: as §1
row,Structure (SMILES),cell viability
1,OC[C@H]1N[C@@H](c2c[nH]c3c(O)ncnc23)[C@H](O)[C@@H]1O [Forodesine],107%
2,O=c1oc2c(cc1O)oc(=O)c1cc(O)c(O)c(O)c12 [Galloflavin],92.7%
3,Nc1ccn([C@@H]2O[C@H](CO)[C@@H](O)C2(F)F)c(=O)n1 [Gemcitabine],105%
4,N[C@@H](CCC(=O)N[C@@H](CS)C(=O)NCC(=O)O)C(=O)O [Glutathione],106%
5,Clc1cc(Cl)c(OCC#CI)cc1Cl [Haloprogin],108%
6,O=c1[nH]c(=O)n([C@H]2C[C@H](O)[C@@H](CO)O2)cc1I [Idoxuridine],101%
7,CC1Cc2ccccc2N1NC(=O)c1ccc(Cl)c(S(N)(=O)=O)c1 (configuration not stated) [Indapamide],86.7%
8,NS(=O)(=O)c1ccc(S(=O)(=O)Nc2cccc3c(Cl)c[nH]c23)cc1 [Indisulam],139%
9,COc1ccc2c(c1)c(CC(=O)O)c(C)n2C(=O)c1ccc(Cl)cc1 [Indomethacine],110%
10,Cn1cc(C[C@@H](N)C(=O)O)c2ccccc21 [Indoximod],107%

# Same assay, conditions: 10 nM; 72 h
row,Structure (SMILES),cell viability
1,OC[C@H]1N[C@@H](c2c[nH]c3c(O)ncnc23)[C@H](O)[C@@H]1O [Forodesine],94.2%
2,O=c1oc2c(cc1O)oc(=O)c1cc(O)c(O)c(O)c12 [Galloflavin],97.2%
3,Nc1ccn([C@@H]2O[C@H](CO)[C@@H](O)C2(F)F)c(=O)n1 [Gemcitabine],33.4%
4,N[C@@H](CCC(=O)N[C@@H](CS)C(=O)NCC(=O)O)C(=O)O [Glutathione],101%
5,Clc1cc(Cl)c(OCC#CI)cc1Cl [Haloprogin],101%
6,O=c1[nH]c(=O)n([C@H]2C[C@H](O)[C@@H](CO)O2)cc1I [Idoxuridine],108%
7,CC1Cc2ccccc2N1NC(=O)c1ccc(Cl)c(S(N)(=O)=O)c1 (configuration not stated) [Indapamide],105%
8,NS(=O)(=O)c1ccc(S(=O)(=O)Nc2cccc3c(Cl)c[nH]c23)cc1 [Indisulam],129%
9,COc1ccc2c(c1)c(CC(=O)O)c(C)n2C(=O)c1ccc(Cl)cc1 [Indomethacine],106%
10,Cn1cc(C[C@@H](N)C(=O)O)c2ccccc21 [Indoximod],99%

# Same assay, conditions: 100 nM; 72 h
row,Structure (SMILES),cell viability
1,OC[C@H]1N[C@@H](c2c[nH]c3c(O)ncnc23)[C@H](O)[C@@H]1O [Forodesine],95.4%
2,O=c1oc2c(cc1O)oc(=O)c1cc(O)c(O)c(O)c12 [Galloflavin],114%
3,Nc1ccn([C@@H]2O[C@H](CO)[C@@H](O)C2(F)F)c(=O)n1 [Gemcitabine],9.8%
4,N[C@@H](CCC(=O)N[C@@H](CS)C(=O)NCC(=O)O)C(=O)O [Glutathione],111%
5,Clc1cc(Cl)c(OCC#CI)cc1Cl [Haloprogin],101%
6,O=c1[nH]c(=O)n([C@H]2C[C@H](O)[C@@H](CO)O2)cc1I [Idoxuridine],105%
7,CC1Cc2ccccc2N1NC(=O)c1ccc(Cl)c(S(N)(=O)=O)c1 (configuration not stated) [Indapamide],101%
8,NS(=O)(=O)c1ccc(S(=O)(=O)Nc2cccc3c(Cl)c[nH]c23)cc1 [Indisulam],173%
9,COc1ccc2c(c1)c(CC(=O)O)c(C)n2C(=O)c1ccc(Cl)cc1 [Indomethacine],98%
10,Cn1cc(C[C@@H](N)C(=O)O)c2ccccc21 [Indoximod],102%

# Same assay, conditions: 1000 nM; 72 h
row,Structure (SMILES),cell viability
1,OC[C@H]1N[C@@H](c2c[nH]c3c(O)ncnc23)[C@H](O)[C@@H]1O [Forodesine],85.1%
2,O=c1oc2c(cc1O)oc(=O)c1cc(O)c(O)c(O)c12 [Galloflavin],115%
3,Nc1ccn([C@@H]2O[C@H](CO)[C@@H](O)C2(F)F)c(=O)n1 [Gemcitabine],11.5%
4,N[C@@H](CCC(=O)N[C@@H](CS)C(=O)NCC(=O)O)C(=O)O [Glutathione],95.7%
5,Clc1cc(Cl)c(OCC#CI)cc1Cl [Haloprogin],101%
6,O=c1[nH]c(=O)n([C@H]2C[C@H](O)[C@@H](CO)O2)cc1I [Idoxuridine],84.1%
7,CC1Cc2ccccc2N1NC(=O)c1ccc(Cl)c(S(N)(=O)=O)c1 (configuration not stated) [Indapamide],97.3%
8,NS(=O)(=O)c1ccc(S(=O)(=O)Nc2cccc3c(Cl)c[nH]c23)cc1 [Indisulam],50.5%
9,COc1ccc2c(c1)c(CC(=O)O)c(C)n2C(=O)c1ccc(Cl)cc1 [Indomethacine],99.3%
10,Cn1cc(C[C@@H](N)C(=O)O)c2ccccc21 [Indoximod],99.2%

# Same assay, conditions: 10000 nM; 72 h
row,Structure (SMILES),cell viability
1,OC[C@H]1N[C@@H](c2c[nH]c3c(O)ncnc23)[C@H](O)[C@@H]1O [Forodesine],82.8%
2,O=c1oc2c(cc1O)oc(=O)c1cc(O)c(O)c(O)c12 [Galloflavin],100%
3,Nc1ccn([C@@H]2O[C@H](CO)[C@@H](O)C2(F)F)c(=O)n1 [Gemcitabine],9.39%
4,N[C@@H](CCC(=O)N[C@@H](CS)C(=O)NCC(=O)O)C(=O)O [Glutathione],110%
5,Clc1cc(Cl)c(OCC#CI)cc1Cl [Haloprogin],0.829%
6,O=c1[nH]c(=O)n([C@H]2C[C@H](O)[C@@H](CO)O2)cc1I [Idoxuridine],63.3%
7,CC1Cc2ccccc2N1NC(=O)c1ccc(Cl)c(S(N)(=O)=O)c1 (configuration not stated) [Indapamide],101%
